Values belong to the sequence of their own block, whether it stands above or below them.
Test system: GST-tagged Cn
Test: PEPperPRINT peptide microarray binding assay with GST-tagged Cn
How it was run: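 Qualitative binding: peptides printed on a PEPperPRINT microarray were incubated overnight at 4 °C with 1 mg/ml GST-tagged Cn, then detected with Alexa-Fluor 647 anti-GST antibody. Log fluorescence was baseline-corrected, averaged over duplicate spots, Z-normalized and averaged across five repeats.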

[1] = GST-tagged Cn, max over the spots named in Location on chip
[2] = GST-tagged Cn, mean over the spots named in Location on chip
[3] = max over the chip locations listed for the peptide (two spots)
[4] = mean over the chip locations listed for the peptide (two spots)
[5] = GST-tagged Cn, max over the chip spots listed under Location on chip
[6] = GST-tagged Cn, mean over the chip spots listed under Location on chip
[7] = max over the spots listed under Location on chip
[8] = mean over the spots listed under Location on chip
[9] = GST-tagged Cn, max over the chip locations
[10] = GST-tagged Cn, mean over the chip locations
[11] = GST-tagged Cn, max over the spots on the chip (two locations)
[12] = GST-tagged Cn, mean over the spots on the chip (two locations)

Chip Fluorescence (max) [1]: 1.583
Chip Fluorescence (mean) [2]: -0.5694
Sequence: TFWSNPQFKVSLEEPD [SeqRBMlowT_2967]

Chip Fluorescence (max) [3]: 9.6825
Chip Fluorescence (mean) [4]: 0.161
Sequence: TTAMNPQFFVQIPRTA [SeqCAPN11_Daphnia_magna_2]

Chip Fluorescence (max) [5]: 0.7584
Chip Fluorescence (mean) [6]: -1.743
Sequence: NVPKGIRFRRTYLAIP [Seqshuffled_5577]

Chip Fluorescence (max) [5]: 0.6841
Chip Fluorescence (mean) [6]: -0.1666
Sequence: RAYINPFMQFIDGGRF [SeqRBMlowT_3663]

Chip Fluorescence (max) [5]: 0.4699
Chip Fluorescence (mean) [6]: -0.1808
Sequence: SSQGSSRPARSPERTV [SeqRBM_2387]

Chip Fluorescence (max) [3]: 6.254
Chip Fluorescence (mean) [4]: 1.438
Sequence: QELFISNITVDHSGSY [SeqCEACAM5_Aotus_nancymaae]

Chip Fluorescence (max) [3]: 3.639
Chip Fluorescence (mean) [4]: 1.593
Sequence: DRMAQDSMGWCRECLM [Seqrandom_9951]

Chip Fluorescence (max) [1]: 1.646
Chip Fluorescence (mean) [2]: -0.634
Sequence: HVSSSPRIAITPTQHR [SeqRBMlowT_8885]

Chip Fluorescence (max) [3]: 3.47
Chip Fluorescence (mean) [4]: 1.839
Sequence: TFWMNPQFKISLEDPD [SeqRBMlowT_4243]

Chip Fluorescence (max) [7]: 3.317
Chip Fluorescence (mean) [8]: 1.923
Sequence: AAGAGVGIVITVTEAE [SeqRBMlowT_180]

Chip Fluorescence (max) [9]: 0.1516
Chip Fluorescence (mean) [10]: -0.9286
Sequence: HSKLIPKVSIQSPVHH [SeqRBMlowT_2323]

Chip Fluorescence (max) [7]: 3.053
Chip Fluorescence (mean) [8]: 1.402
Sequence: GELAIKNMKPWDVGGY [SeqRBM_3830]

Chip Fluorescence (max) [5]: 0.9778
Chip Fluorescence (mean) [6]: -1.603
Sequence: KAYMCPFMQFIEGGRR [SeqRBMlowT_535]

Chip Fluorescence (max) [7]: 2.849
Chip Fluorescence (mean) [8]: 0.5944
Sequence: TFWTNPQYTITLEEVD [SeqRBMlowT_678]

Chip Fluorescence (max) [5]: 0.7337
Chip Fluorescence (mean) [6]: -0.349
Sequence: LSARYPEIVVSVPEHN [SeqRBM_9361]

Chip Fluorescence (max) [9]: 0.08257
Chip Fluorescence (mean) [10]: -1.44
Sequence: HVSSSPDIAITPTQHR [SeqRBMlowT_750]

Chip Fluorescence (max) [5]: 0.4752
Chip Fluorescence (mean) [6]: -0.03556
Sequence: MTPAAPIVRLHIPSSV [SeqRBM_8521]

Chip Fluorescence (max) [3]: 3.708
Chip Fluorescence (mean) [4]: 0.9074
Sequence: RAYINPFMTFIDGGHR [SeqRBMlowT_1519]

Chip Fluorescence (max) [9]: 0
Chip Fluorescence (mean) [10]: -0.3136
Sequence: GTMSPPDISITPPYAP [SeqRBM_3223]

Chip Fluorescence (max) [1]: 1.355
Chip Fluorescence (mean) [2]: 0.6125
Sequence: PALYDNALGIESFTLS [SeqCRZ1_Penicillium_arizonense]

Chip Fluorescence (max) [11]: 1.0396
Chip Fluorescence (mean) [12]: 0.6258
Sequence: ARPPNAAFVLDQETTY [Seqshuffled_9990]

Chip Fluorescence (max) [1]: 1.422
Chip Fluorescence (mean) [2]: -0.7542
Sequence: TFWTNPQFRLKLIDPD [SeqRBMlowT_9197]

Chip Fluorescence (max) [7]: 3.135
Chip Fluorescence (mean) [8]: 0.405
Sequence: KAYMCPYMDFQDGGRR [SeqRBM_4270]

Chip Fluorescence (max) [5]: 0.8878
Chip Fluorescence (mean) [6]: -0.5817
Sequence: QYAYNSQMMGITTQLQ [Seqshuffled_9335]

Chip Fluorescence (max) [1]: 1.398
Chip Fluorescence (mean) [2]: -0.3065
Sequence: NIIKTLTAVARYCQHF [Seqrandom_9968]

Chip Fluorescence (max) [11]: 1.278
Chip Fluorescence (mean) [12]: -0.7291
Sequence: TFWTNPQFKITLTDPD [SeqRBMlowT_9027]

Chip Fluorescence (max) [1]: 1.816
Chip Fluorescence (mean) [2]: 0.8874
Sequence: REPGVPPLELKGHLSL [SeqRBM_7171]

Chip Fluorescence (max) [5]: 0.8637
Chip Fluorescence (mean) [6]: -0.07489
Sequence: TFWTNPQYKIKLEDPD [SeqRBMlowT_629]

Chip Fluorescence (max) [11]: 1.2142
Chip Fluorescence (mean) [12]: 0.3008
Sequence: RNPGIALLSLRGHKAQ [SeqRBMlowT_8792]

Chip Fluorescence (max) [9]: 0.1832
Chip Fluorescence (mean) [10]: -0.5691
Sequence: TFWTNPQYRIKLEEPD [SeqRBMlowT_34]

Chip Fluorescence (max) [5]: 0.3864
Chip Fluorescence (mean) [6]: -0.7137
Sequence: ADEANPEITVTPAELP [SeqRBMlowT_396]

Chip Fluorescence (max) [3]: 3.957
Chip Fluorescence (mean) [4]: 2.453
Sequence: LKDEIPEVRLNIISNL [SeqRBMlowT_1003]

Chip Fluorescence (max) [11]: 1.31
Chip Fluorescence (mean) [12]: -0.2973
Sequence: ADGAGVGIVITVTEAE [SeqRBMlowT_1411]

Chip Fluorescence (max) [7]: 2.624
Chip Fluorescence (mean) [8]: 0.4288
Sequence: DSSANPEITITPAELP [SeqRBMlowT_4460]

Chip Fluorescence (max) [9]: 0.3619
Chip Fluorescence (mean) [10]: -1.021
Sequence: GGPGTPGRQGQHLAPS [SeqRBMlowT_7794]

Chip Fluorescence (max) [1]: 1.862
Chip Fluorescence (mean) [2]: -0.1462
Sequence: AKMAPPAINIDFAPPN [SeqRBMlowT_7690]

Chip Fluorescence (max) [3]: 3.486
Chip Fluorescence (mean) [4]: 0.3128
Sequence: WAGCDTWVFSIWRWIA [Seqrandom_10000]

Chip Fluorescence (max) [7]: 2.665
Chip Fluorescence (mean) [8]: 0.9097
Sequence: NMGTGVGIVITITEAV [SeqAKAP79_Meleagris_gallopavo]

Chip Fluorescence (max) [5]: 0.8889
Chip Fluorescence (mean) [6]: -0.4265
Sequence: TFWTNPQYRITVTEPD [SeqRBMlowT_7465]

Chip Fluorescence (max) [9]: -0.2537
Chip Fluorescence (mean) [10]: -3.06
Sequence: STSSLPTFSFSSPVPS [SeqRBMlowT_2358]

Chip Fluorescence (max) [3]: 7.691
Chip Fluorescence (mean) [4]: 2.027
Sequence: TFWTNPQFRLKLEEVD [SeqRBMlowT_5628]

Chip Fluorescence (max) [1]: 1.494
Chip Fluorescence (mean) [2]: 0.7951
Sequence: GDYMQGTLQAETGEHD [Seqshuffled_9624]

Chip Fluorescence (max) [9]: 0.1586
Chip Fluorescence (mean) [10]: -0.3624
Sequence: TFWANPQFRIKLEEPD [SeqRBMlowT_4612]

Chip Fluorescence (max) [1]: 1.398
Chip Fluorescence (mean) [2]: 0.7603
Sequence: PMMAVPSISSDVSNAP [SeqRBM_5566]

Chip Fluorescence (max) [5]: 0.4524
Chip Fluorescence (mean) [6]: -0.5715
Sequence: TFWTNPQYRIKLTDAD [SeqRBMlowT_4313]

Chip Fluorescence (max) [7]: 2.934
Chip Fluorescence (mean) [8]: 1.6891
Sequence: TFWTNPQFRITVTDPD [SeqRBMlowT_669]

Chip Fluorescence (max) [9]: 0.2085
Chip Fluorescence (mean) [10]: -1.259
Sequence: KKMAPPCINIDPAPTS [SeqRBMlowT_307]

Chip Fluorescence (max) [11]: 1.129
Chip Fluorescence (mean) [12]: -1.294
Sequence: KSKLIPKLSIQSPVRH [SeqJHY_Macaca_mulatta]

Chip Fluorescence (max) [11]: 1.167
Chip Fluorescence (mean) [12]: 0.2882
Sequence: PGCATPRIAITPTENM [SeqRBM_2983]

Chip Fluorescence (max) [9]: -0.781
Chip Fluorescence (mean) [10]: -1.379
Sequence: LLLKIPSLNINDVEAS [SeqRBM_1919]

Chip Fluorescence (max) [3]: 3.668
Chip Fluorescence (mean) [4]: 2.003
Sequence: RAYINPFMQFIDGGRK [SeqRBMlowT_4070]

Chip Fluorescence (max) [5]: 0.9435
Chip Fluorescence (mean) [6]: -0.1625
Sequence: LKDEVPEVRLNIISSL [SeqRBMlowT_4107]

Chip Fluorescence (max) [9]: -0.1304
Chip Fluorescence (mean) [10]: -0.5132
Sequence: ESFGNELIPFNASKSY [Seqshuffled_9947]

Chip Fluorescence (max) [1]: 1.415
Chip Fluorescence (mean) [2]: 0.2946
Sequence: HVSSSVDIVITPTQHR [SeqRBMlowT_8839]

Chip Fluorescence (max) [11]: 1.02
Chip Fluorescence (mean) [12]: 0.3817
Sequence: SLKLWMLLGIEAFTLS [SeqRBM_4562]

Chip Fluorescence (max) [11]: 1.167
Chip Fluorescence (mean) [12]: 0.2257
Sequence: LKDESPEVRLNIISKL [SeqRBMlowT_3831]

Chip Fluorescence (max) [1]: 1.3512
Chip Fluorescence (mean) [2]: -0.8669
Sequence: STSSLPTFSFSSPLST [SeqRBMlowT_892]

Chip Fluorescence (max) [5]: 0.5967
Chip Fluorescence (mean) [6]: -0.4753
Sequence: VPDIGHMALHHDQIQP [Seqrandom_9983]

Chip Fluorescence (max) [1]: 1.8162
Chip Fluorescence (mean) [2]: 0.005772
Sequence: TFWMNPQYKIKLEEPD [SeqRBMlowT_4687]

Chip Fluorescence (max) [3]: 3.895
Chip Fluorescence (mean) [4]: 0.1296
Sequence: EGKMDPELYISTVEAQ [SeqRBM_3392]

Chip Fluorescence (max) [7]: 3.268
Chip Fluorescence (mean) [8]: 1.368
Sequence: VALVIRSTDKDDVGNY [SeqCEACAM5_Bactrocera_latifrons]

Chip Fluorescence (max) [7]: 2.798
Chip Fluorescence (mean) [8]: 1.173
Sequence: KAYMSPFMSFIDGGRR [SeqRBMlowT_6614]

Chip Fluorescence (max) [1]: 1.719
Chip Fluorescence (mean) [2]: -0.09544
Sequence: PDESTPEITITPAELP [SeqRBMlowT_5714]

Chip Fluorescence (max) [5]: 0.956
Chip Fluorescence (mean) [6]: -0.7275
Sequence: TFWTNPQYKIKLEEPD [SeqRBMlowT_46]

Chip Fluorescence (max) [3]: 5.333
Chip Fluorescence (mean) [4]: 1.133
Sequence: SNLACNDRHPNNEDAK [Seqshuffled_9450]

Chip Fluorescence (max) [9]: -0.2717
Chip Fluorescence (mean) [10]: -1.157
Sequence: NSSGAPQFQINVLMGE [SeqRBM_9653]

Chip Fluorescence (max) [7]: 2.998
Chip Fluorescence (mean) [8]: 0.7654
Sequence: LKDEIPEVRLNIISAL [SeqRBMlowT_1072]

Chip Fluorescence (max) [5]: 0.8506
Chip Fluorescence (mean) [6]: -0.3833
Sequence: KAYIMLFFTFIDGGQK [SeqRBM_3979]

Chip Fluorescence (max) [3]: 3.464
Chip Fluorescence (mean) [4]: 0.964
Sequence: GTLYDNVLGIESFSLS [SeqRBMlowT_4817]

Chip Fluorescence (max) [5]: 0.479
Chip Fluorescence (mean) [6]: -1.105
Sequence: TFWTNPQFRVKLEDPD [SeqRBMlowT_223]

Chip Fluorescence (max) [5]: 0.749
Chip Fluorescence (mean) [6]: -1.0469
Sequence: NGPGTPTRQGQPLAPS [SeqRBMlowT_7792]

Sequence: RAYINPFMMFRSGGNK [SeqSFB3_Cordyceps_militaris]
Chip Fluorescence (max) [5]: 0.6899
Chip Fluorescence (mean) [6]: -0.6148

Chip Fluorescence (max) [11]: 1.273
Chip Fluorescence (mean) [12]: 0.6916
Sequence: QAVMCTAMSWCDCGQR [SeqRBM_6860]

Chip Fluorescence (max) [3]: 4.041
Chip Fluorescence (mean) [4]: 0.007175
Sequence: TFWSNPQFRITLEDPD [SeqRBMlowT_45]

Chip Fluorescence (max) [7]: 3.174
Chip Fluorescence (mean) [8]: 2.023
Sequence: GYDIDPAISFDSDLML [Seqshuffled_9502]

Chip Fluorescence (max) [1]: 1.462
Chip Fluorescence (mean) [2]: 0.439
Sequence: TFWTNPQYRIKLEEED [SeqRBMlowT_1298]

Chip Fluorescence (max) [5]: 0.3774
Chip Fluorescence (mean) [6]: -0.7887
Sequence: FSFMCPDSNTNHDQVS [SeqRBM_6801]

Reference: paper PMC9928118, “Funneling modulatory peptide design with generative models: Discovery and characterization of disruptors of calcineurin protein-protein interactions” (PLOS Computational Biology, 2023)
